The record followed here is paper PMC11872117, “Inhibitory effects of Kratom constituents, mitragynine and 7-hydroxymitragynine, on 4-methylumbelliferone glucuronidation by human UDP-glucuronosyltransferases” (Toxicology Reports, 2025).

Type in all cases: biochemical
In experiment [1] the target is T1, UGT1A3 (Homo sapiens, UniProt P35503).
T1 construct: Supersome recombinant human enzyme (Corning), microsomal preparation
T1 sequence (P35503 29-534): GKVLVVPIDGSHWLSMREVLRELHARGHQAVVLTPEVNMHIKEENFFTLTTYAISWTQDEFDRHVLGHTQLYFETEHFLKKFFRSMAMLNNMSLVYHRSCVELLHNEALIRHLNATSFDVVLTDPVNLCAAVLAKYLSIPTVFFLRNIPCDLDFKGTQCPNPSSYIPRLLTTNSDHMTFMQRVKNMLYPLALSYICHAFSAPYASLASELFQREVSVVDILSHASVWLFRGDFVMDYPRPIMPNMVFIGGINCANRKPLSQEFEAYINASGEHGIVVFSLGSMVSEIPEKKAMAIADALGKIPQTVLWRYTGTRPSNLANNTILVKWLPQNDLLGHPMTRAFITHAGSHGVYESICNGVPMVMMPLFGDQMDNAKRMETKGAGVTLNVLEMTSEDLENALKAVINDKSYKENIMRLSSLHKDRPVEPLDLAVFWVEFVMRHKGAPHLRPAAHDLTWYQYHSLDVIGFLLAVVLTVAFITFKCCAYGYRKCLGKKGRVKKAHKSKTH
In words: 4MU glucuronidation, HPLC of 4MUG, Dixon plot. The text has this: 4MU glucuronidation, HPLC of 4MUG, Dixon plot on UGT1A3

The target of experiment [2] is T2, UGT1A9 (Homo sapiens, UniProt O60656).
T2 construct: Supersome recombinant human enzyme (Corning), microsomal preparation
T2 sequence (O60656 26-530): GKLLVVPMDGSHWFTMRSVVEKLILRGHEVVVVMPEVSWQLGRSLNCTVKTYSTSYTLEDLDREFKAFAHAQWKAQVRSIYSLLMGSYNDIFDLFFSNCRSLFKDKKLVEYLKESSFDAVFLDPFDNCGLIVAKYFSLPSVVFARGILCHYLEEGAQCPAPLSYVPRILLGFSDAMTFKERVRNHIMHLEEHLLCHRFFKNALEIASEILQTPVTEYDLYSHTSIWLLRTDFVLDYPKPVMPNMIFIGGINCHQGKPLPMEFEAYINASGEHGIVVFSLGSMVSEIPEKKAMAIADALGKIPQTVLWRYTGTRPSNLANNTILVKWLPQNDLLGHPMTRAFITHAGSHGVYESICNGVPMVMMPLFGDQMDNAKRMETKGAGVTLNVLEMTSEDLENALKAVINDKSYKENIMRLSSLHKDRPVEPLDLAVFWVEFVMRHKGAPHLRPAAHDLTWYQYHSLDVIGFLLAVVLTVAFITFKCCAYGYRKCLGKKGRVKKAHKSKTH
In words: 4MU glucuronidation, HPLC of 4MUG. An excerpt:
4MU glucuronidation, HPLC of 4MUG on UGT1A9

The target of experiment [3] is T1, UGT1A3. In words: 4MU glucuronidation, HPLC of 4MUG. An excerpt:
4MU glucuronidation, HPLC of 4MUG on UGT1A3

The next experiment addresses T3, UGT1A1 (Homo sapiens, UniProt P22309).
T3 construct: Supersome recombinant human enzyme (Corning), microsomal preparation
T3 sequence (P22309 26-533): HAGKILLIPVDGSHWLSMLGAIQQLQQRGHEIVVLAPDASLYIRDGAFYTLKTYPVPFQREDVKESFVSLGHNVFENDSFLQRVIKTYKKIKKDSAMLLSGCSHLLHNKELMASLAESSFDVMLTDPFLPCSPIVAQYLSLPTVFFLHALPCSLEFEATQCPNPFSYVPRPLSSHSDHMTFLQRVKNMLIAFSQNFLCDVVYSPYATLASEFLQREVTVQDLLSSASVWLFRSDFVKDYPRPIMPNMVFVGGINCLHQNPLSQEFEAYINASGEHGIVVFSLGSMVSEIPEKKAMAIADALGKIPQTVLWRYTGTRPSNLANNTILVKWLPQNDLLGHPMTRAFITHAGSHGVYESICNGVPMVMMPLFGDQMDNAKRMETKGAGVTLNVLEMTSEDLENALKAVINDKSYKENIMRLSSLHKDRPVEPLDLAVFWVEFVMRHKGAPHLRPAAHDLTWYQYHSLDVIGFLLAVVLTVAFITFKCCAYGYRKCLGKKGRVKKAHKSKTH
Put plainly: 4MU glucuronidation, HPLC of 4MUG. The text has this: 4MU glucuronidation, HPLC of 4MUG on UGT1A1

The target in a further experiment is T4, UGT1A6 (Homo sapiens, UniProt P19224).
T4 construct: Supersome recombinant human enzyme (Corning), microsomal preparation
T4 sequence (P19224 27-532): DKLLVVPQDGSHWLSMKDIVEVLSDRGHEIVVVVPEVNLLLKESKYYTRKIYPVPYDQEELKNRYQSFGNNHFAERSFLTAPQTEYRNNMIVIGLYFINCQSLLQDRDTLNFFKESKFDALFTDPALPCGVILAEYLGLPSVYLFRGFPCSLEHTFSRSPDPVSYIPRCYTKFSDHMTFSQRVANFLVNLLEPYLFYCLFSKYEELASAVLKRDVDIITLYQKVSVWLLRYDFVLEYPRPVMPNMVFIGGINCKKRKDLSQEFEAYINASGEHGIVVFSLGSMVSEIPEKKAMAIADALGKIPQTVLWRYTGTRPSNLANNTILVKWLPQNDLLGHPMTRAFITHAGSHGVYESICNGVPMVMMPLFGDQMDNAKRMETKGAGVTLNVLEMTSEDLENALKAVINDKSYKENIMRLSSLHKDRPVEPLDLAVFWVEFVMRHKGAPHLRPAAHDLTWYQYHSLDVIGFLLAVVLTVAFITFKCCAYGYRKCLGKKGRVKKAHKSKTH
Put plainly: 4MU glucuronidation, HPLC of 4MUG. An excerpt:
4MU glucuronidation, HPLC of 4MUG on UGT1A6

The target of experiment [4] is T2, UGT1A9. Put plainly: 4MU glucuronidation, HPLC of 4MUG, Dixon plot. The text has this:
4MU glucuronidation, HPLC of 4MUG, Dixon plot on UGT1A9

Another experiment addresses T5, UGT2B7 (Homo sapiens, UniProt P16662).
T5 construct: Supersome recombinant human enzyme (Corning), microsomal preparation
T5 sequence (P16662 24-529): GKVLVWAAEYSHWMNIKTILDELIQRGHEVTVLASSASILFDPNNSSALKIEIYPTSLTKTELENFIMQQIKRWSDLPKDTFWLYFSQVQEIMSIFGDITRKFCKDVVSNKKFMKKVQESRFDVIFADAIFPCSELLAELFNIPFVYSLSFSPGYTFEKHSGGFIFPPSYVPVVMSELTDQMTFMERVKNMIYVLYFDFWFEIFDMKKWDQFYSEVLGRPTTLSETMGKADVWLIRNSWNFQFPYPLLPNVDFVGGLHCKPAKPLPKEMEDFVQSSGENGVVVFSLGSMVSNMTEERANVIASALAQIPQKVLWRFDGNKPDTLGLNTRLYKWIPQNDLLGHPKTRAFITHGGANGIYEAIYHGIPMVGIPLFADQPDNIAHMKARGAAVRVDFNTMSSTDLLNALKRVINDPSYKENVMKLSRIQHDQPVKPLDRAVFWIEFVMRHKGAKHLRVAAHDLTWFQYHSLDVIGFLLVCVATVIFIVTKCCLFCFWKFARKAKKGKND
In words: 4MU glucuronidation, HPLC of 4MUG. The text has this:
4MU glucuronidation, HPLC of 4MUG on UGT2B7

The target of the next experiment is T6, UGT2B15 (Homo sapiens, UniProt P54855).
T6 construct: Supersome recombinant human enzyme (Corning), microsomal preparation
T6 sequence (P54855 24-530): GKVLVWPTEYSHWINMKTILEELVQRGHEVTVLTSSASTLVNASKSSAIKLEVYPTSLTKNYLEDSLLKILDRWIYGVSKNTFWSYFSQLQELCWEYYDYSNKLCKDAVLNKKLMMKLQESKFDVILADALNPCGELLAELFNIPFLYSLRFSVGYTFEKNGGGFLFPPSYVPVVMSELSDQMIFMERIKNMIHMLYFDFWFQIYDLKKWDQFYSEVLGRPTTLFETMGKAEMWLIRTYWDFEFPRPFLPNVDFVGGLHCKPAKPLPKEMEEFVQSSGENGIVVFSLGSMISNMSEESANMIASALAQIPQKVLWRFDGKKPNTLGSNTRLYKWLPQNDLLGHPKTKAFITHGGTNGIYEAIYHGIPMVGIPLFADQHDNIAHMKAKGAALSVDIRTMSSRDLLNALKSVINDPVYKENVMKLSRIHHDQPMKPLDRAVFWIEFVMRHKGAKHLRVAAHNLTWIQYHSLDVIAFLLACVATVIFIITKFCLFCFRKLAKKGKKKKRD
In words: 4MU glucuronidation, HPLC of 4MUG. The text has this:
4MU glucuronidation, HPLC of 4MUG on UGT2B15

As to `CC[C@@H]1CN2CCc3c([nH]c4cccc(OC)c34)[C@@H]2C[C@@H]1/C(=C\OC)C(=O)OC` [mitragynine], the figures for the Ki at UGT1A3 [1] and on UGT1A9 [4] were 45 ± 1.3 µM and 114 ± 13 µM, respectively. Also, the IC50 against UGT1A9 [2] is 131 ± 11 µM; at UGT1A3 [3], 72 ± 0.16 µM; against UGT1A1, greater than 200 µM; at UGT1A6, 121 ± 44 µM; against UGT2B7, greater than 200 µM; against UGT2B15, 152 ± 24 µM.

The term Ki denotes a measure of affinity in units of concentration, obtained from inhibition or displacement. A low value points to a stronger hold on the target. A word on the IC50: it is the midpoint of a concentration-inhibition curve. The low end stands for higher potency, the high end for lower potency.
